Measured values from US6395723B2, “Method of providing coginition enhancement with 5α-pregnan-3β-ol-20-one sulfate” (Wyeth, priority 1997, dated 2002).
pIC50: −log10 of the molar value. Where a name gives a salt, the structure may show the parent alone.

Tests used:
Type in all cases: cell-based
[1] = tested on: calcium channel currents; test: Whole cell recording of calcium currents from cultured hippocampal neurons; details: 2 μM, p=0.044
Experimental: (§1) The neuroprotective and cognition enhancing effects of the compounds of this invention were evaluated in an in vitro standard pharmacological test procedure which measured the effects of 5α-pregnan-3β-ol-20-one 3-sulfate ester sodium salt, as a representative compound of this invention, on calcium and potassium channel currents. Briefly, the following procedure was used.
(§2) Whole cell recording techniques were used to record calcium and potassium currents from cultured hippocampal neurons. The compounds to be evaluated were made fresh each day in a 400 μM ethanol stock solution. The test compounds were diluted in saline to obtain a final concentration of 2 μM. The amplitude of calcium or potassium currents in control, test compound, and washout solutions was measured from at least 10 current traces for each condition. To compensate for rundown of the calcium current with time, control and washout currents were averaged. The current amplitude with drug was divided by the averaged control and washout current to determine the percent change. The means, standard deviations and errors for each test compound were calculated and significance from control was determined using the paired T-Test.

[2] = biological target: T1, progesterone receptors (Homo sapiens, UniProt P06401); test: Stimulation of alkaline phosphatase enzyme activity in T47D cells (progestational activity); details: for concentrations required for activity (alkaline phosphatase induction): T47D cells, reference progestins
T1 construct: endogenous in cells; host or cells: T47D human breast cancer cells
T1 sequence (P06401 1-933): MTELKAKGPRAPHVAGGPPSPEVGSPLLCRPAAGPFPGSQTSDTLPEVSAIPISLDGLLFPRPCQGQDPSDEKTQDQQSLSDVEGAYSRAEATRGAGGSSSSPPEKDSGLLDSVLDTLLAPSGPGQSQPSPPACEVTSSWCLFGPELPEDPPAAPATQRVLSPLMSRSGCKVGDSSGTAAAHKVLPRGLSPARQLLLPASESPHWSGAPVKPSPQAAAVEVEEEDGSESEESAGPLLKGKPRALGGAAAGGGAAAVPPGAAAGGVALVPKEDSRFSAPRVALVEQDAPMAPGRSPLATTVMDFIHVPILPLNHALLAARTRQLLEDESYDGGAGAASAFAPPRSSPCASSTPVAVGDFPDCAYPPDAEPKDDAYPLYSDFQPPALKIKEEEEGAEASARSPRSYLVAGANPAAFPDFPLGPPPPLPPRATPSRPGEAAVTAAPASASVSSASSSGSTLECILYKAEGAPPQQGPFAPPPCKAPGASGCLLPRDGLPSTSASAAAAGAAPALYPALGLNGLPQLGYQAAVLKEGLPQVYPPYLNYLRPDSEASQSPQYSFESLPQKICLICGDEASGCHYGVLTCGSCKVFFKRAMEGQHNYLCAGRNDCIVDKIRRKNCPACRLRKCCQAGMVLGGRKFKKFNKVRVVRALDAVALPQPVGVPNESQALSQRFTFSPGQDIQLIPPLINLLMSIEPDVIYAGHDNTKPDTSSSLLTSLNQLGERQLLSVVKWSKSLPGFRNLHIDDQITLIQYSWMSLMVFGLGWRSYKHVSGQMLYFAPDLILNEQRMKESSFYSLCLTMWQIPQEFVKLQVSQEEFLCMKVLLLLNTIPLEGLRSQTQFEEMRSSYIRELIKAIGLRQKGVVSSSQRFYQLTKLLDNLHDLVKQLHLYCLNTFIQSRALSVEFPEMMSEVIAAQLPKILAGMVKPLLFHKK
Excerpt: In this test procedure, the progestational activity of a compound is quantified based on its stimulation of alkaline phosphatase enzyme activity in T47D cells, a human breast cancer cell line which expresses high levels of progesterone receptors. This is a well established test procedure in which both the progestin receptors and the response stimulated by activated progestin receptors are endogenous to the cells. Cells are pre-conditioned in low serum medium for one day and then treated with test compounds.

[3] = tested on: potassium channel currents; test: Whole cell recording of potassium currents from cultured hippocampal neurons; details: 2 μM, p=0.0006
Experimental: as §1, §2

CC(=O)[C@H]1CC[C@H]2[C@@H]3CC[C@H]4C[C@@H](OS(=O)(=O)O)CC[C@]4(C)[C@H]3CC[C@]12C [5α-pregnan-3β-ol-20-one 3-sulfate ester sodium salt]
decrease of calcium channel currents versus control [1]: 4.64±1.64%
pIC50 [2]: 5.30

CC(=O)O[C@]1(C(C)=O)CC[C@H]2[C@@H]3C[C@H](C)C4=CC(=O)CC[C@]4(C)[C@H]3CC[C@@]21C [medroxyprogesterone acetate]
concentrations required for activity (alkaline phosphatase induction) [2]: low nanomolar

CC(=O)[C@H]1CC[C@H]2[C@@H]3CCC4=CC(=O)CC[C@]4(C)[C@H]3CC[C@]12C [progesterone]
concentrations required for activity (alkaline phosphatase induction) [2]: low nanomolar

CC(O)C1CCC2C3CCC4CC(O)CCC4(C)C3CCC12C (stereo not drawn) [5α-Pregnan-3β,20β-diol]
increase of potassium channel currents versus control [3]: 21.76±2.40%
